Measured values from ChEMBL document CHEMBL3232987, “Investigation of Ugi-4CC derived 1H-tetrazol-5-yl-(aryl) methyl piperazinyl-6-fluoro-4-oxo-1,4-dihydroquinoline-3-carboxylic acid: synthesis, biology and 3D-QSAR analysis” (Eur J Med Chem, 2014).
In brackets after ≈: the same amount, converted by molar mass.

What was measured:
Staphylococcus aureus [1] = experiment: Antibacterial activity against methicillin-resistant Staphylococcus aureus ATCC 700699 after 24 hrs by spectrophotometric analysis; type: functional, organism-based
Klebsiella pneumoniae = experiment: Antibacterial activity against Klebsiella pneumoniae after 24 hrs by spectrophotometric analysis; type: functional, organism-based
Staphylococcus aureus [2] = experiment: Antibacterial activity against Staphylococcus aureus ATCC 25923 after 24 hrs by spectrophotometric analysis; type: functional, organism-based
Staphylococcus aureus [3] = experiment: Antibacterial activity against gentamicin-resistant Staphylococcus aureus ATCC 33592 after 24 hrs by spectrophotometric analysis; type: functional, organism-based
Staphylococcus aureus [4] = experiment: Antibacterial activity against Staphylococcus aureus ATCC 29213 after 24 hrs by spectrophotometric analysis; type: functional, organism-based
Escherichia coli = experiment: Antibacterial activity against Escherichia coli after 24 hrs by spectrophotometric analysis; type: functional, organism-based
Staphylococcus aureus [5] = experiment: Antibacterial activity against methicillin-resistant Staphylococcus aureus ATCC 700699 by NCCLS two-fold dilution method; type: functional
Staphylococcus aureus [6] = experiment: Antibacterial activity against Staphylococcus aureus ATCC 29213 by NCCLS two-fold dilution method; type: functional
Staphylococcus aureus [7] = experiment: Antibacterial activity against gentamicin-resistant Staphylococcus aureus ATCC 33592 by NCCLS two-fold dilution method; type: functional
Staphylococcus aureus [8] = experiment: Antibacterial activity against Staphylococcus aureus ATCC 25923 by NCCLS two-fold dilution method; type: functional; conditions: for MIC: Staphylococcus aureus, ATCC 25923
[9] = Staphylococcus aureus, ATCC 700699, 24 h
[10] = Staphylococcus aureus, ATCC 700699, 24 h, read-out: IC50
[11] = Staphylococcus aureus, ATCC 25923, 24 h
[12] = Staphylococcus aureus, ATCC 25923, 24 h, read-out: IC50
[13] = Staphylococcus aureus, ATCC 33592, 24 h
[14] = Staphylococcus aureus, ATCC 33592, 24 h, read-out: IC50
[15] = Staphylococcus aureus, ATCC 29213, 24 h
[16] = Staphylococcus aureus, ATCC 29213, 24 h, read-out: IC50

| Molecule | IC50 (Staphylococcus aureus [1]) | IC50 (Klebsiella pneumoniae) | IC50 (Staphylococcus aureus [2]) | IC50 (Staphylococcus aureus [3]) | IC50 (Staphylococcus aureus [4]) | IC50 (Escherichia coli) | MIC (Staphylococcus aureus [5]) | MIC (Staphylococcus aureus [1]; [9]) | IC50 (Staphylococcus aureus [1]; [10]) | MIC (Staphylococcus aureus [6]) | MIC (Staphylococcus aureus [2]; [11]) | IC50 (Staphylococcus aureus [2]; [12]) | MIC (Staphylococcus aureus [7]) | -logMIC (Staphylococcus aureus [8]) | MIC (Staphylococcus aureus [8]) | MIC (Staphylococcus aureus [3]; [13]) | IC50 (Staphylococcus aureus [3]; [14]) | MIC (Staphylococcus aureus [4]; [15]) | IC50 (Staphylococcus aureus [4]; [16]) |
| --- | --- | --- | --- | --- | --- | --- | --- | --- | --- | --- | --- | --- | --- | --- | --- | --- | --- | --- | --- |
| GENTAMICIN | > 50 µg/mL | 1.7 µg/mL | 1.7 µg/mL | > 50 µg/mL | > 50 µg/mL | 1.7 µg/mL | – | – | – | – | – | – | – | – | – | – | – | – | – |
| CCn1cc(C(=O)O)c(=O)c2cc(F)c(N3CCN(C(c4ccc(OC)c5ccccc45)c4nnnn4C(C)(C)C)CC3)cc21 (configuration not stated) | – | – | – | – | – | – | 12.5 µg/mL (≈ 20.4 µM) | 6.9 µg/mL (≈ 11.2 µM) | 7.5 µg/mL (≈ 12.2 µM) | 25 µg/mL (≈ 40.7 µM) | 18 µg/mL (≈ 29.3 µM) | 7 µg/mL (≈ 11.4 µM) | 12.5 µg/mL (≈ 20.4 µM) | 4.69 | 12.5 µg/mL (≈ 20.4 µM) | 50 µg/mL (≈ 81.5 µM) | 50 µg/mL (≈ 81.5 µM) | 50 µg/mL (≈ 81.5 µM) | 50 µg/mL (≈ 81.5 µM) |
| O=C(O)c1cn(Cc2ccc(C(F)(F)F)cc2)c2cc(N3CCN(C(c4ccc(F)cc4)c4nnnn4C4CCCCC4)CC3)c(F)cc2c1=O (configuration not stated) | – | – | – | – | – | – | > 50 µg/mL | > 50 µg/mL | > 50 µg/mL | > 50 µg/mL | 12.5 µg/mL (≈ 17.7 µM) | 5.2 µg/mL (≈ 7.35 µM) | > 50 µg/mL | 4.752 | 12.5 µg/mL (≈ 17.7 µM) | > 50 µg/mL | > 50 µg/mL | > 50 µg/mL | > 50 µg/mL |
| O=C(O)c1cn(Cc2ccc(C(F)(F)F)cc2)c2cc(N3CCN(C(c4ccncc4)c4nnnn4C4CCCCC4)CC3)c(F)cc2c1=O (configuration not stated) | – | – | – | – | – | – | 50 µg/mL (≈ 72.4 µM) | 50 µg/mL (≈ 72.4 µM) | > 50 µg/mL | 50 µg/mL (≈ 72.4 µM) | 50 µg/mL (≈ 72.4 µM) | > 50 µg/mL | > 50 µg/mL | 4.14 | 50 µg/mL (≈ 72.4 µM) | > 50 µg/mL | 50 µg/mL (≈ 72.4 µM) | 50 µg/mL (≈ 72.4 µM) | > 50 µg/mL |
| COc1ccc(C(c2nnnn2C2CCCCC2)N2CCN(c3cc4c(cc3F)c(=O)c(C(=O)O)cn4Cc3ccc(C(F)(F)F)cc3)CC2)c(OC)c1OC (configuration not stated) | – | – | – | – | – | – | > 50 µg/mL | > 50 µg/mL | > 50 µg/mL | > 50 µg/mL | 50 µg/mL (≈ 64.1 µM) | > 50 µg/mL | > 50 µg/mL | 4.193 | 50 µg/mL (≈ 64.1 µM) | > 50 µg/mL | 50 µg/mL (≈ 64.1 µM) | > 50 µg/mL | > 50 µg/mL |
| COc1ccc(C(c2nnnn2C(C)(C)C)N2CCN(c3cc4c(cc3F)c(=O)c(C(=O)O)cn4Cc3ccc(C(F)(F)F)cc3)CC2)c2ccccc12 (configuration not stated) | – | – | – | – | – | – | > 50 µg/mL | 50 µg/mL (≈ 67.2 µM) | 50 µg/mL (≈ 67.2 µM) | > 50 µg/mL | > 50 µg/mL | 50 µg/mL (≈ 67.2 µM) | > 50 µg/mL | 4.172 | 50 µg/mL (≈ 67.2 µM) | > 50 µg/mL | > 50 µg/mL | > 50 µg/mL | > 50 µg/mL |
| CC(C)(C)n1nnnc1C(c1ccco1)N1CCN(c2cc3c(cc2F)c(=O)c(C(=O)O)cn3Cc2ccc(C(F)(F)F)cc2)CC1 (configuration not stated) | – | – | – | – | – | – | 50 µg/mL (≈ 76.5 µM) | 50 µg/mL (≈ 76.5 µM) | 50 µg/mL (≈ 76.5 µM) | 25 µg/mL (≈ 38.2 µM) | 50 µg/mL (≈ 76.5 µM) | 50 µg/mL (≈ 76.5 µM) | 12.5 µg/mL (≈ 19.1 µM) | – | 50 µg/mL (≈ 76.5 µM) | 50 µg/mL (≈ 76.5 µM) | 50 µg/mL (≈ 76.5 µM) | 50 µg/mL (≈ 76.5 µM) | 50 µg/mL (≈ 76.5 µM) |
| CC(C)(C)n1nnnc1C(c1cccc2ccccc12)N1CCN(c2cc3c(cc2F)c(=O)c(C(=O)O)cn3Cc2ccc(C(F)(F)F)cc2)CC1 (configuration not stated) | – | – | – | – | – | – | 50 µg/mL (≈ 70.1 µM) | 50 µg/mL (≈ 70.1 µM) | 50 µg/mL (≈ 70.1 µM) | 50 µg/mL (≈ 70.1 µM) | 50 µg/mL (≈ 70.1 µM) | 50 µg/mL (≈ 70.1 µM) | 50 µg/mL (≈ 70.1 µM) | 4.455 | 50 µg/mL (≈ 70.1 µM) | > 50 µg/mL | > 50 µg/mL | 50 µg/mL (≈ 70.1 µM) | > 50 µg/mL |
| COc1ccc(C(c2nnnn2C2CCCCC2)N2CCN(c3cc4c(cc3F)c(=O)c(C(=O)O)cn4Cc3ccc(C(F)(F)F)cc3)CC2)c2ccccc12 (configuration not stated) | – | – | – | – | – | – | > 50 µg/mL | > 50 µg/mL | > 50 µg/mL | > 50 µg/mL | > 50 µg/mL | 50 µg/mL (≈ 65 µM) | > 50 µg/mL | 4.187 | 50 µg/mL (≈ 65 µM) | > 50 µg/mL | > 50 µg/mL | > 50 µg/mL | > 50 µg/mL |
| CCn1cc(C(=O)O)c(=O)c2cc(F)c(N3CCN(C(c4ccc(OC)c5ccccc45)c4nnnn4C4CCCCC4)CC3)cc21 (configuration not stated) | – | – | – | – | – | – | 25 µg/mL (≈ 39.1 µM) | 9 µg/mL (≈ 14.1 µM) | 4.06 µg/mL (≈ 6.35 µM) | 12.5 µg/mL (≈ 19.5 µM) | 4.4 µg/mL (≈ 6.88 µM) | 1.7 µg/mL (≈ 2.66 µM) | 6.25 µg/mL (≈ 9.77 µM) | 5.01 | 6.25 µg/mL (≈ 9.77 µM) | 4.7 µg/mL (≈ 7.35 µM) | 3.6 µg/mL (≈ 5.63 µM) | 6.9 µg/mL (≈ 10.8 µM) | 3.6 µg/mL (≈ 5.63 µM) |
